From patent publication US8623865B2, “Acylpiperazinones and their use as pharmaceuticals” (Fab Parma S.A.S, priority 2009, dated 2014)
Values after ≈ are worked out from the molar mass of the structure shown. Values joined by “and” are separate entries in the source; they are usually repeats but may differ in a detail not shown here. Equal entries are not always repeated. Where two headings read alike, the source gives them in different places.

Legend:
[1] = target: recombinant S. aureus FabI enzyme (Staphylococcus aureus (strain MRSA252), UniProt Q6GI75); assay: In vitro inhibition of recombinant S. aureus FabI enzyme (fluorescence based assay); type: biochemical; conditions: 60 min pre-incubation
Experimental: Compound inhibitory activity of FabI enzyme is measured in vitro by the IC50 determination using a fluorescence based assay.
The protein FabI from S. aureus is prepared and purified using standard methods for recombinant protein expression after cloning of the gene in a prokaryotic expression vector.
The biochemical activity of the FabI enzyme is assessed using the following method.
The assay buffer “AB” contained 50 mM ADA (N-(2-acetamido)iminodiacetic acid monosodium salt) pH 6.5, 1 mM dithiothreitol, 0.006% Triton-X100 and 50 mM NaCl. The following components are added in a white polystyrene Costar plate (Ref 3912) up to a final volume of 55.5 μL: 1.5 μL DMSO or inhibitor dissolved in DMSO and 54 μL of a FabI/NADPH/NADP+ mixture in AB. After 60 min of pre-incubation at room temperature, the reaction is started by addition of 5 μL of trans-2-octenoyl N-acetylcysteamine thioester (t-o-NAC) to a final volume of 60.5 μL. This reaction mixture is then composed of 2 nM FabI, 40 μM NADPH (Sigma, N7505), 10 μM NADP+ (Sigma, N5755), 100 μM t-O-NAC and compound at defined concentration. Fluorescence intensity of NADPH (λex=360 nm, λem=520 nm) is measured immediately after t-O-NAC addition (T0), and approximately 50 min later (T50) by a Fluostar Optima (BMG) so as to achieve ±30% of NADPH conversion. Enzyme activity is calculated by first subtracting TO signal to T50 and then subtracting background signal (FabI=0). Percentages of inhibition are calculated against untreated samples (Inhibitor=0) and IC50 are fitted to a classical Langmuir equilibrium model using XLFIT (IDBS).

[2] = rats, intravenous; cited from earlier work
[3] = test system: methicillin susceptible Staphylococcus aureus strain ATCC 29213; assay: In vivo protection assay, S. aureus infection of neutropenic mice (survival); set-up: species or system Swiss mice; conditions: 48 h
[4] = test system: S. aureus CIP 54.146 (MSSA); assay: MIC, broth microdilution, S. aureus CIP 54.146 (with and without 80% human serum); type: cell-based; conditions: Staphylococcus aureus
Experimental: The compounds of the invention are useful antibacterial agents having a selective spectrum of activity in vitro against bacterial strains relying on FabI and related targets. […] The activity is presented as Minimum Inhibitory Concentration (MIC) expressed in μg/ml and was determined using broth microdilution or Agar dilution methods.
(§1) Antibacterial activity was determined on MSSA CIP 54.146 provided by the Centre de Ressources Biologiques de l'Institut Pasteur. Antibacterial activity was also determined on MRSA (IHMA #510059) and MSSA (IHMA #555189).
This protocol is compliant with Clinical Laboratory Standards Institute (CLSI) methodology as described in M7-A7 document of the CLSI. The compound to be tested is diluted according to a geometric series of reason 2 in pure DMSO. Dilutions are transferred in sterile polystyrene microplates, followed by mid-log phase bacteria in cation-adjusted Muller-Hinton broth (ca-MHB, Fluka, Reference 90922) with a final inoculum of 5×10^5 cfu/ml. Microplates are incubated overnight at 35° C. MIC is defined as the lowest concentration of antimicrobial agent that completely prevents visible bacterial growth. All manipulations, but compound handling (in pure DMSO), are performed under sterile conditions. The final concentration of DMSO in the plates is 2%.
In order to evaluate the serum binding of test compounds, MICs were also measured in ca-MHB supplemented with 80% human serum (HS, Sigma, Reference H4522).

MRSA (IHMA #510059) = assay: MIC, broth microdilution (susceptibility method), MRSA; type: cell-based; conditions: Staphylococcus aureus, read-out: MIC MRSA (IHMA #510059)
Experimental: as §1
(§2) Minimum inhibitory concentrations (MICs) were determined by broth microdilution according to CLSI guidelines (CLSI, M100-20^1, M7-A8^2, M27-A3^3). The compounds were tested in the range from […]. Colonies were taken directly from a second-pass culture plate and prepared to a suspension equivalent to the 0.5 McFarland standard using normal saline. […] The panels were incubated at 35° C. for 16 to 20 hours before reading the MIC endpoints. The compounds of Examples 4 to 8 were dissolved in DMSO to make the initial solutions of 5120 μg/ml. These solutions were diluted 1:10 in sterile water to a stock solution of 512 μg/ml. The stock solutions were further diluted into the appropriate broth medium for the sequential dilutions used in the broth microdilution panels. S. pneumoniae was tested in Mueller Hinton (MH) broth with 3% lysed horse blood and C. albicans was tested in RPMI-1640 medium. All other organisms were tested in MH broth.

MSSA (IHMA #555189) = assay: MIC, broth microdilution (susceptibility method), MSSA; type: cell-based; conditions: Staphylococcus aureus, read-out: MIC MSSA (IHMA #555189)
Experimental: as §1, §2

E. coli (ATCC 25922) = assay: MIC, broth microdilution (susceptibility method), E. coli; type: cell-based; conditions: Escherichia coli, ATCC25922, MH broth
Experimental: as §2

C. albicans (ATCC 90028) = assay: MIC, broth microdilution (susceptibility method), C. albicans; type: cell-based; conditions: Candida albicans, ATCC90028, RPMI-1640 medium
Experimental: as §2

HSA = HSA (Homo sapiens (Human), UniProt P02768); assay: HSA binding analysis using a chiral HSA column; type: in vitro ADME
Experimental: The test system used in this analysis was an HSA chiral column.
A 10 mM stock solution of Example 7 (molecular weight of 475.49 and HPLC purity 86.3%) was prepared by dissolving 1.8 mg of a compound of Example 7 in 0.327 ml of DMSO. The compound of Example 7 at a concentration of 100 μM was prepared by diluting the stock solution at 10 mM in DMSO with Potassium phosphate buffer pH 7.0.
The relationship between the retention time (Tr) and percentage of protein binding (PB %) depended on the dead time (T0) and the capacity factor (k′): PB %=[k′/(k′+1)]*100 • where k′=(Tr−T0)/T0 Results

[5] = test system: S. pneumoniae (ATCC 49619); assay: MIC, broth microdilution (susceptibility method), S. pneumoniae; type: cell-based; conditions: Streptococcus pneumoniae, ATCC49619, MH broth with 3% lysed horse blood
Experimental: as §2

E. faecalis (ATCC 29212) = assay: MIC, broth microdilution (susceptibility method), E. faecalis; type: cell-based; conditions: Enterococcus faecalis, ATCC29212, MH broth
Experimental: as §2

[6] = ca-MHB supplemented with 80% human serum, read-out: MIC S. aureus CIP 54.146 in the presence of 80% human serum
[7] = ca-MHB, read-out: MIC S. aureus CIP 54.146

Chain of HSA (P02768 25-609): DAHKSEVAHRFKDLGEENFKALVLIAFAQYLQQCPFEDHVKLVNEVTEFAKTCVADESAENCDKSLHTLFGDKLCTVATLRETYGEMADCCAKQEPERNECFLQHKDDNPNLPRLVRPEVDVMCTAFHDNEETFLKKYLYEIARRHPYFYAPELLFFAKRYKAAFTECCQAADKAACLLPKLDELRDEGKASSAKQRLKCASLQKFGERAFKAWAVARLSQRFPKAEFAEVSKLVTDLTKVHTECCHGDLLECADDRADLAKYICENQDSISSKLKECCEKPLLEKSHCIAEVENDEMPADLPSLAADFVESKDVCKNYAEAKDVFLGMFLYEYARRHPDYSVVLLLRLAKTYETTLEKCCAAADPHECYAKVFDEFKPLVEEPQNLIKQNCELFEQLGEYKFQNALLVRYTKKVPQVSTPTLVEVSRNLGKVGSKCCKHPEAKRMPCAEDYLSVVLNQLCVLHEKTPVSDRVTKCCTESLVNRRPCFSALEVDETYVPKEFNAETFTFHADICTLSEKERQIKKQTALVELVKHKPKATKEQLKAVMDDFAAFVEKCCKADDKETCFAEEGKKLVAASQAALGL

CCOC(=O)Oc1cc(CC)c(F)cc1Oc1ccc(C(=O)N2CCNC(=O)C2)cc1F [Example 3, 4-Fluoro-2-{2-fluoro-4-[(3-oxopiperazin-1-yl)carbonyl]phenoxy}-5-ethylphenyl ethyl carbonate]
IC50 [1]: 5000 nM

Oc1cc(Cl)ccc1Oc1ccc(Cl)cc1Cl [Triclosan]
LD50 [2]: 29 mg/kg

CCc1cc(O)c(Oc2ccc(C(=O)N3CCNC(=O)C3)cc2F)cc1F [Example 1, 4-[4-(4-Ethyl-5-fluoro-2-hydroxyphenoxy)-3-fluorobenzoyl]piperazin-2-one]
Protection of infected mice (survival rate) ([3]; single oral administration, 100 and 200 mg/kg): able to protect mice against bacterial dissemination | Protection of infected mice (survival rate) ([3]; single subcutaneous administration, 6.25 and 12.5 mg/kg): able to protect mice against bacterial dissemination | IC50 [1]: 16 nM | MIC [4, 6]: 0.5 µg/mL | MIC [4, 7]: 0.25 µg/mL (≈ 0.664 µM)

CCc1cc(O)c(Oc2ccc(C(=O)N3CC(=O)NC(=O)C3)cc2F)cc1F [Example 4, 4-[4-(4-Ethyl-5-fluoro-2-hydroxyphenoxy)-3-fluorobenzoyl]piperazine-2,6-dione]
MIC (MRSA (IHMA #510059); broth microdilution, MH broth): 32 µg/mL (≈ 82 µM) | MIC (MSSA (IHMA #555189); broth microdilution, MH broth): 4 µg/mL (≈ 10.2 µM)

CCc1cc(O)c(Oc2ccc(C(=O)N3CCN(CN4CCOCC4)C(=O)C3)cc2F)cc1F [Example 7, 4-[4-(4-Ethyl-5-fluoro-2-hydroxyphenoxy)-3-fluorobenzoyl]-1-(morpholinomethyl)piperazin-2-one]
MIC (E. coli (ATCC 25922)): 4 µg/mL (≈ 8.41 µM) | MIC (MRSA (IHMA #510059)): 0.06 µg/mL (≈ 0.126 µM) | MIC (C. albicans (ATCC 90028)): > 128 µg/mL | Binding to HSA (in words) (HSA): moderate binding | HSA Binding (%) (HSA; 37° C., pH 7.0, 100 μM): 74.9% | C (average) (HSA; average of 3 tests): 0.75 | k′ (average) (HSA; average of 3 tests): 2.987 | k′ (capacity factor) (HSA; single test): 2.987 and 2.981 and 2.993 | MIC [5]: > 128 µg/mL | MIC (MSSA (IHMA #555189)): 0.06 µg/mL (≈ 0.126 µM) | MIC (E. faecalis (ATCC 29212)): 64 µg/mL (≈ 135 µM)

CCc1cc(O)c(Oc2ccc(C(=O)N3CCN(CC(N)=O)C(=O)C3)cc2F)cc1F [Example 6, 2-[4-(4-(4-Ethyl-5-fluoro-2-hydroxyphenoxy)-3-fluorobenzoyl]-2-oxopiperazin-1-yl)acetamide]
MIC (MRSA (IHMA #510059); broth microdilution, MH broth): 4 µg/mL (≈ 9.23 µM) | MIC (MSSA (IHMA #555189); broth microdilution, MH broth): 0.25 µg/mL (≈ 0.577 µM)

CCc1cc(O)c(Oc2ccc(C(=O)N3CCN(C)C(=O)C3)cc2F)cc1F [Example 5, 4-[4-(4-Ethyl-5-fluoro-2-hydroxyphenoxy)-3-fluorobenzoyl]-1-methylpiperazin-2-one]
MIC (MRSA (IHMA #510059); broth microdilution, MH broth): 1 µg/mL (≈ 2.56 µM) | MIC (MSSA (IHMA #555189); broth microdilution, MH broth): 0.015 µg/mL (≈ 0.0384 µM)

CCc1ccc(Oc2ccc(C(=O)N3CCNC(=O)C3)cc2F)c(O)c1 [Example 2, 4-[4-(4-Ethyl-2-hydroxyphenoxy)-3-fluorobenzoyl]piperazin-2-one]
IC50 [1]: 29 nM | MIC [4, 6]: 1 µg/mL | MIC [4, 7]: 1 µg/mL (≈ 2.79 µM)

CCc1cc(O)c(Oc2ccc(C(=O)N3CCNC(=O)C3C)cc2F)cc1F (centres unmarked) [Example 8, 4-[4-(4-Ethyl-5-fluoro-2-hydroxyphenoxy)-3-fluorobenzoyl]-3-methyl piperazin-2-one]
MIC (MRSA (IHMA #510059); broth microdilution, MH broth): 1 µg/mL (≈ 2.56 µM) | MIC (MSSA (IHMA #555189); broth microdilution, MH broth): 0.06 µg/mL (≈ 0.154 µM)
